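Test compounds were applied to cells in 96-well plates for 48 hours at 5 doses. At the GI50, growth is halved. TGI is the concentration that stops growth completely.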

The results in this text go back to PubChem BioAssay (NCI).

Test systems include A498 renal; CCRF-CEM leukemia; DU-145 prostate; HCC-2998 colon; HL-60(TB) leukemia; HOP-62 NSCLC; HOP-92 NSCLC; IGROV1 ovarian; K-562 leukemia; MCF7 breast; MOLT-4 leukemia; NCI-H226 lung; NCI-H522 lung; OVCAR-4 ovarian; RXF 393 renal; SK-MEL-2 melanoma; T-47D breast; TK-10 renal; UACC-257 melanoma; UO-31 renal; SK-OV-3 ovarian.
What all share (experiment): NCI anticancer screen, dose series, 48 h

For `COc1ccc2c(NCCCCCCCCNc3c4ccccc4nc4cc(OC)ccc34)c3ccccc3nc2c1`, the GI50 in the experiment on A498 renal was 0.129 µM; with CCRF-CEM leukemia it was 0.0253 µM; with DU-145 prostate, 0.0498 µM; in the experiment with HCC-2998 colon, 0.0718 µM; in the experiment with HL-60(TB) leukemia it was 0.363 µM; in the experiment on HOP-62 NSCLC it was 0.0658 µM. In addition, the GI50 in the experiment with HOP-92 NSCLC was 1.24 µM; in the experiment with K-562 leukemia it was 0.0529 µM; with MCF7 breast it was 0.0279 µM; in the experiment on MOLT-4 leukemia it was 0.0546 µM; in the experiment with NCI-H226 lung it was 0.128 µM; in the experiment on NCI-H522 lung, 0.011 µM. The GI50 in the experiment with OVCAR-4 ovarian was 0.0938 µM; with RXF 393 renal, 0.117 µM; in the experiment with SK-MEL-2 melanoma, 0.162 µM; in the experiment on T-47D breast, 0.0508 µM; in the experiment with TK-10 renal, 0.126 µM; in the experiment on UACC-257 melanoma, 0.221 µM. Besides, the GI50 in the experiment with UO-31 renal was 0.0488 µM. Also, the TGI came out at 0.437 µM in the experiment with A498 renal; 0.431 µM in the experiment with CCRF-CEM leukemia; 0.339 µM with DU-145 prostate; 0.254 µM in the experiment with HCC-2998 colon; 2.13 µM in the experiment with HL-60(TB) leukemia; 0.318 µM with HOP-62 NSCLC. Moreover, the TGI with HOP-92 NSCLC stood at 2.58 µM; with IGROV1 ovarian it was 0.108 µM; with K-562 leukemia it was 0.3 µM; in the experiment on MCF7 breast it was 0.192 µM; with MOLT-4 leukemia it was 2.32 µM; in the experiment on NCI-H226 lung it was 0.961 µM. Also, the TGI was 0.187 µM in the experiment with NCI-H522 lung; 0.446 µM with OVCAR-4 ovarian; 0.332 µM with RXF 393 renal; 0.358 µM in the experiment with SK-MEL-2 melanoma; 0.295 µM with T-47D breast; 0.763 µM in the experiment with TK-10 renal. Further, the figures for the TGI with UACC-257 melanoma and in the experiment on UO-31 renal were 1.07 µM and 0.223 µM, respectively.

Regarding `CCOC(=O)/C=C(/N=P(c1ccccc1)(c1ccccc1)c1ccccc1)C(F)(F)F`, the TGI in the experiment on HCC-2998 colon, in the experiment with NCI-H522 lung, in the experiment on SK-OV-3 ovarian, in the experiment on T-47D breast and with UO-31 renal was > 100 µM each time.
